Test results reported in patent US10004701B2, “Methods and compositions for treating infection” (UNIVERSITY OF ROCHESTER, priority 2012, dated 2018).
Counter-ions that a name gives are not always drawn. Like-named read-outs stand apart in the source and are kept apart here.

Tests used:
Test in all cases: AK assay 384-well format, Prestwick library screening
[1] = test system: P. aeruginosa; type: cell-based, Pseudomonas aeruginosa; settings: 50 μM final drug concentration; for fold induction at 50 µM: Pseudomonas aeruginosa, 3 h
[2] = test system: K. pneumoniae; type: cell-based, Klebsiella pneumoniae; settings: 50 μM final drug concentration; for fold induction at 50 µM: Klebsiella pneumoniae, 3 h
[3] = test system: A. baumannii strain 98-37-09; type: cell-based, Acinetobacter baumannii; settings: 50 μM final drug concentration; for fold induction at 50 µM: Acinetobacter baumannii, 983709, 3 h
[4] = test system: E. cloacae; type: cell-based, Enterobacter cloacae; settings: 50 μM final drug concentration; for fold induction at 50 µM: Enterobacter cloacae, 3 h
[5] = test system: E. faecium; type: cell-based, Enterococcus faecium; settings: 50 μM final drug concentration; for fold induction at 50 µM: Enterococcus faecium, 3 h
[6] = test system: E. coli; type: cell-based, Escherichia coli; settings: 50 μM final drug concentration; for fold induction at 50 µM: Escherichia coli, 3 h
[7] = test system: S. aureus strain USA300-0114; type: cell-based, Staphylococcus aureus; settings: 50 μM final drug concentration; for fold induction at 50 µM: Staphylococcus aureus, USA300, 3 h
[8] = cutoff for positive-scoring molecules 3-fold increase, read-out: AK-based Prestwick Library Screening Results, P. aeruginosa (fold increase in extracellular AK activity)
[9] = cutoff for positive-scoring molecules 3-fold increase, read-out: AK-based Prestwick Library Screening Results, K. pneumoniae (fold increase in extracellular AK activity)
[10] = cutoff for positive-scoring molecules 3-fold increase, read-out: AK-based Prestwick Library Screening Results, A. baumannii (fold increase in extracellular AK activity)
[11] = cutoff for positive-scoring molecules 3-fold increase, read-out: AK-based Prestwick Library Screening Results, E. cloacae (fold increase in extracellular AK activity)
[12] = cutoff for positive-scoring molecules 3-fold increase, read-out: AK-based Prestwick Library Screening Results, E. faecium (fold increase in extracellular AK activity)
[13] = cutoff for positive-scoring molecules 3-fold increase, read-out: AK-based Prestwick Library Screening Results, S. aureus (fold increase in extracellular AK activity)
[14] = planktonic, cutoff for positive-scoring molecules 3-fold increase, read-out: AK-based Prestwick Library Screening Results, P. aeruginosa (fold increase in extracellular AK activity)
[15] = planktonic, cutoff for positive-scoring molecules 3-fold increase, read-out: AK-based Prestwick Library Screening Results, K. pneumoniae (fold increase in extracellular AK activity)
[16] = planktonic, cutoff for positive-scoring molecules 3-fold increase, read-out: AK-based Prestwick Library Screening Results, A. baumannii (fold increase in extracellular AK activity)
[17] = planktonic, cutoff for positive-scoring molecules 3-fold increase, read-out: AK-based Prestwick Library Screening Results, E. cloacae (fold increase in extracellular AK activity)
[18] = planktonic, cutoff for positive-scoring molecules 3-fold increase, read-out: AK-based Prestwick Library Screening Results, E. faecium (fold increase in extracellular AK activity)
[19] = planktonic, cutoff for positive-scoring molecules 3-fold increase, read-out: AK-based Prestwick Library Screening Results, E. coli (fold increase in extracellular AK activity)
[20] = planktonic, cutoff for positive-scoring molecules 3-fold increase, read-out: AK-based Prestwick Library Screening Results, S. aureus (fold increase in extracellular AK activity)
[21] = 384-well format, cutoff for positive-scoring molecules 3-fold increase, read-out: AK-based Prestwick Library Screening Results, P. aeruginosa (increase in extracellular AK activity)
[22] = 384-well format, cutoff for positive-scoring molecules 3-fold increase, read-out: AK-based Prestwick Library Screening Results, K. pneumoniae (increase in extracellular AK activity)
[23] = 384-well format, cutoff for positive-scoring molecules 3-fold increase, read-out: AK-based Prestwick Library Screening Results, A. baumannii (increase in extracellular AK activity)
[24] = 384-well format, cutoff for positive-scoring molecules 3-fold increase, read-out: AK-based Prestwick Library Screening Results, E. cloacae (increase in extracellular AK activity)
[25] = 384-well format, cutoff for positive-scoring molecules 3-fold increase, read-out: AK-based Prestwick Library Screening Results, E. faecium (increase in extracellular AK activity)
[26] = 384-well format, cutoff for positive-scoring molecules 3-fold increase, read-out: AK-based Prestwick Library Screening Results, E. coli (increase in extracellular AK activity)
[27] = 384-well format, cutoff for positive-scoring molecules 3-fold increase, read-out: AK-based Prestwick Library Screening Results, S. aureus (increase in extracellular AK activity)
[28] = 384-well format, cutoff for positive-scoring molecules 3-fold increase

Structure (SMILES): O=C(c1ccc(OCCN2CCCCC2)cc1)c1c(-c2ccc(O)cc2)sc2cc(O)ccc12 [Raloxifene hydrochloride]
- fold induction at 50 µM [1, 8]: 1.2
- fold induction at 50 µM [2, 9]: 1.1
- fold induction at 50 µM [3, 10]: 1.5
- fold induction at 50 µM [4, 11]: 1.3
- fold induction at 50 µM [5, 12]: 0.9
- fold induction at 50 µM ([6]; […], read-out: AK-based Prestwick Library Screening Results, E. coli (fold increase in extracellular AK activity)): 1.5
- fold induction at 50 µM [7, 13]: 1.2

Structure (SMILES): CC1CS(=O)(=O)CCN1/N=C/c1ccc([N+](=O)[O-])o1 (stereo not drawn) [Nifurtimox]
- fold induction at 50 µM ([1]; planktonic P. aeruginosa, positive cutoff 3-fold increase, read-out: AK-based Prestwick library screening result, P. aeruginosa (fold increase in extracellular AK activity)): 1.1
- fold induction at 50 µM ([2]; planktonic K. pneumoniae, positive cutoff 3-fold increase, read-out: AK-based Prestwick library screening result, K. pneumoniae (fold increase in extracellular AK activity)): 1.2
- fold induction at 50 µM ([3]; planktonic A. baumannii, positive cutoff 3-fold increase, read-out: AK-based Prestwick library screening result, A. baumannii (fold increase in extracellular AK activity)): 1.5
- fold induction at 50 µM ([4]; planktonic E. cloacae, positive cutoff 3-fold increase, read-out: AK-based Prestwick library screening result, E. cloacae (fold increase in extracellular AK activity)): 1.3
- fold induction at 50 µM ([5]; planktonic E. faecium, positive cutoff 3-fold increase, read-out: AK-based Prestwick library screening result, E. faecium (fold increase in extracellular AK activity)): 1
- fold induction at 50 µM ([6]; planktonic E. coli, positive cutoff 3-fold increase, read-out: AK-based Prestwick library screening result, E. coli (fold increase in extracellular AK activity)): 1.1
- fold induction at 50 µM ([7]; planktonic S. aureus, positive cutoff 3-fold increase, read-out: AK-based Prestwick library screening result, S. aureus (fold increase in extracellular AK activity)): 0.8

Structure (SMILES): C[N+]1(C)CCC(OC(=O)C(O)(c2ccccc2)C2CCCC2)C1 (stereo not drawn) [Glycopyrrolate]
- fold induction at 50 µM [1, 14]: 0.9
- fold induction at 50 µM [2, 15]: 0.8
- fold induction at 50 µM [3, 16]: 0.8
- fold induction at 50 µM [4, 17]: 1.1
- fold induction at 50 µM [5, 18]: 0.9
- fold induction at 50 µM [6, 19]: 0.9
- fold induction at 50 µM [7, 20]: 0.7

Structure (SMILES): CC(C)(Oc1ccc(Cl)cc1)C(=O)O [Clofibric acid]
- fold induction at 50 µM [1, 8]: 1.2
- fold induction at 50 µM [2, 9]: 1.1
- fold induction at 50 µM [3, 10]: 1.3
- fold induction at 50 µM [4, 11]: 1.5
- fold induction at 50 µM [5, 12]: 1.1
- fold induction at 50 µM ([6]; cutoff for positive-scoring molecules 3-fold increase, read-out: AK-based Prestwick Library Screening Results, E. coli (fold increase in extracellular AK activity)): 1.2
- fold induction at 50 µM [7, 13]: 1.4

Structure (SMILES): Cc1ncc([N+](=O)[O-])n1CCO [Metronidazole]
- fold induction at 50 µM [1, 21]: 0.3
- fold induction at 50 µM [2, 22]: 0.4
- fold induction at 50 µM [3, 23]: 0.4
- fold induction at 50 µM [4, 24]: 0.3
- fold induction at 50 µM [5, 25]: 0.8
- fold induction at 50 µM [6, 26]: 0.4
- fold induction at 50 µM [7, 27]: 0.4

Structure (SMILES): CC(=O)c1cc2ccccc2oc1=O [Compound 3-Acetylcoumarin, 3-Acetylcoumarin]
- fold induction at 50 µM [1, 14]: 0.8
- fold induction at 50 µM [2, 15]: 0.6
- fold induction at 50 µM [3, 16]: 0.8
- fold induction at 50 µM [4, 17]: 1.1
- fold induction at 50 µM [5, 18]: 0.9
- fold induction at 50 µM [6, 19]: 0.7
- fold induction at 50 µM [7, 20]: 0.6

Structure (SMILES): Cc1cc(=O)n(-c2ccccc2)n1C [Antipyrine]
- fold induction at 50 µM ([1]; 384-well format, […], read-out: AK-based Prestwick Library Screening Results, P. aeruginosa (increase in extracellular AK activity)): 0.8
- fold induction at 50 µM ([2]; 384-well format, […], read-out: AK-based Prestwick Library Screening Results, K. pneumoniae (increase in extracellular AK activity)): 0.7
- fold induction at 50 µM ([3]; 384-well format, […], read-out: AK-based Prestwick Library Screening Results, A. baumannii (increase in extracellular AK activity)): 1
- fold induction at 50 µM ([4]; 384-well format, […], read-out: AK-based Prestwick Library Screening Results, E. cloacae (increase in extracellular AK activity)): 1
- fold induction at 50 µM ([5]; 384-well format, […], read-out: AK-based Prestwick Library Screening Results, E. faecium (increase in extracellular AK activity)): 1
- fold induction at 50 µM [6, 26]: 0.9
- fold induction at 50 µM ([7]; 384-well format, […], read-out: AK-based Prestwick Library Screening Results, S. aureus (increase in extracellular AK activity)): 0.7

Structure (SMILES): NCc1ccc(S(N)(=O)=O)cc1 [Mafenide hydrochloride]
- fold induction at 50 µM [1, 21]: 0.5
- fold induction at 50 µM [2, 22]: 0.5
- fold induction at 50 µM [3, 23]: 0.5
- fold induction at 50 µM [4, 24]: 0.6
- fold induction at 50 µM [5, 25]: 1.2
- fold induction at 50 µM [6, 26]: 0.6
- fold induction at 50 µM [7, 27]: 0.6

Structure (SMILES): C[C@H](CCC(=O)O)[C@H]1CC[C@H]2[C@@H]3C(=O)C[C@@H]4CC(=O)CC[C@]4(C)[C@H]3CC(=O)[C@]12C [Dehydrocholic acid]
- fold induction at 50 µM [1, 21]: 1
- fold induction at 50 µM [2, 22]: 0.8
- fold induction at 50 µM [3, 23]: 1
- fold induction at 50 µM [4, 24]: 1.4
- fold induction at 50 µM [5, 25]: 1
- fold induction at 50 µM [6, 26]: 1.3
- fold induction at 50 µM [7, 27]: 1

Structure (SMILES): Nc1ccccc1S(N)(=O)=O [Compound 2-Aminobenzenesulfonamide, 2-Aminobenzenesulfonamide]
- fold induction at 50 µM [1, 14]: 0.9
- fold induction at 50 µM [2, 15]: 0.7
- fold induction at 50 µM [3, 16]: 0.9
- fold induction at 50 µM [4, 17]: 1.4
- fold induction at 50 µM [5, 18]: 0.9
- fold induction at 50 µM [6, 19]: 1.1
- fold induction at 50 µM [7, 20]: 0.8

Structure (SMILES): CCCCOc1ccc(C(=O)CCN2CCCCC2)cc1 [Dyclonine hydrochloride]
- fold induction at 50 µM [1, 21]: 1
- fold induction at 50 µM [2, 22]: 0.7
- fold induction at 50 µM [3, 23]: 0.9
- fold induction at 50 µM [4, 24]: 1.1
- fold induction at 50 µM [5, 25]: 1
- fold induction at 50 µM [6, 26]: 1
- fold induction at 50 µM [7, 27]: 0.9

Structure (SMILES): CC(=O)[N-]S(=O)(=O)c1ccc(N)cc1.O.[Na+] [Sulfacetamide sodic hydrate]
- AK-based Prestwick Library Screening Results, P. aeruginosa (increase in extracellular AK activity) [1, 28]: 0.5
- AK-based Prestwick Library Screening Results, K. pneumoniae (increase in extracellular AK activity) [2, 28]: 0.5
- AK-based Prestwick Library Screening Results, A. baumannii (increase in extracellular AK activity) [3, 28]: 2.2
- AK-based Prestwick Library Screening Results, E. cloacae (increase in extracellular AK activity) [4, 28]: 0.7
- AK-based Prestwick Library Screening Results, E. faecium (increase in extracellular AK activity) [5, 28]: 0.9
- AK-based Prestwick Library Screening Results, E. coli (increase in extracellular AK activity) [6, 28]: 0.6
- AK-based Prestwick Library Screening Results, S. aureus (increase in extracellular AK activity) [7, 28]: 0.7
